Results taken from patent publication US9314507B2, “Methods of treatment of heart failure with natriuretic peptides” (Capricor Therapeutics, INC., priority 2010, dated 2016).
Where a SMILES comes first, the peptide text is derived from it. Bridges are numbered along the chain shown (N, C = ends).

Columns and labels:
Format in all cases: in vivo, human
healthy subjects = assay: clinical
clinical = conditions: human, in vivo; read-out: terminal elimination half-life
[1] = system: patients with chronic heart failure; assay: Dosing study (fixed and weight-based dose)
Protocol: In a dosing study, CD-NP was administered to patients with chronic heart failure. The amount of CD-NP administered was either a set amount (in μg/hr) regardless of the patient's weight, or was varied based on the patient's weight.
In FIG. 10a, the steady state average (SS Avg) serum concentration of CD-NP in pg/mL is plotted against patient weight for patients who received low (18 μg/hr) and medium (24 μg/hr) doses of CD-NP.
The placebo group had no significant change in SBP over the course of the study. […] In one aspect, the SBP decrease for doses 24 μg/hr is insufficient to cause a risk of hypotension. […] The weight-based group received a dose that depended on the patients weight. Using PK data, for example the linear fit of data from FIG. 10a, the dose was adjusted to give a predicted serum concentration of 500 pg/mL.
As depicted in FIG. 12, the concentration of CD-NP in serum vs. time after initial dosing for patients on a low dose and a medium dose.

[2] = system: patients hospitalized with acute heart failure requiring hemodynamic monitoring; assay: Hemodynamic Monitoring Phase 2a clinical study (Hemo Study, NIL-CDNP-CT003)
Protocol: Another exemplary study using CD-NP was a multi-center, open-label Phase 2a clinical study of CD-NP in patients hospitalized with acute heart failure requiring hemodynamic monitoring (Hemo Study, or NIL-CDNP-CT003). This study considered the efficacy of 8 hours of intravenous administration of CD-NP on changes in cardiac output and pulmonary capillary wedge pressure (PCWP, or wedge pressure).
Stabilized acute heart failure patients requiring hemodynamic monitoring, and receiving standard-of-care heart failure medications (i.e., furosemide infusion), received an initial 8-hour CD-NP infusion followed by a 14-hour washout period, and then a further 8-hour CD-NP infusion. Hemodynamic measurements were collected for an additional 8 hours and safety measurements were collected for a further 2 days.
Patients were enrolled into one of two sequential cohorts (Cohort A and B) which could include up to 10 evaluable patients in each cohort. Cohort A received 8 hours of 3 ng/kg/min CD-NP, followed by a 14 hour wash-out period, and then 8 hours of 10 ng/kg/min CD-NP. Cohort B received 8 hours of 1 ng/kg/min CD-NP, followed by a 14 hour wash-out period, and then 8 hours of 20 ng/kg/min CD-NP.
The first 2 hours, (−2 to 0) represent time before administration of CD-NP. Hours 0 to 38 represent time during the CD-NP dosing regimen discussed above.

CC[C@H](C)[C@@H]1NC(=O)[C@H](CCCNC(=N)N)NC(=O)[C@H](CC(=O)O)NC(=O)[C@H](CCCCN)NC(=O)[C@H](CC(C)C)NC(=O)CNC(=O)[C@H](Cc2ccccc2)NC(=O)[C@@H](NC(=O)CNC(=O)[C@H](CCCCN)NC(=O)[C@H](CO)NC(=O)[C@H](CC(C)C)NC(=O)CN)CSSC[C@@H](C(=O)N2CCC[C@H]2C(=O)N[C@@H](CO)C(=O)N[C@@H](CC(C)C)C(=O)N[C@@H](CCCNC(=N)N)C(=O)N[C@@H](CC(=O)O)C(=O)N2CCC[C@H]2C(=O)N[C@@H](CCCNC(=N)N)C(=O)N2CCC[C@H]2C(=O)N[C@@H](CC(N)=O)C(=O)N[C@@H](C)C(=O)N2CCC[C@H]2C(=O)N[C@@H](CO)C(=O)N[C@H](C(=O)N[C@@H](CO)C(=O)N[C@@H](C)C(=O)O)[C@@H](C)O)NC(=O)CNC(=O)[C@H](CC(C)C)NC(=O)CNC(=O)[C@H](CO)NC(=O)[C@H](CCSC)NC(=O)[C@H](CO)NC(=O)CNC1=O [CD-NP, cenderitide] (H-GLSKGCFGLKDRIGSMSGLGCPSLRDPRPNAPSTSA-OH; disulfide 6-21; N-terminus and C-terminus assumed)
orthostatic hypotension immediately after the infusion (healthy subjects; 17.5 ng/kg/min, vs placebo arm): more events were observed in the CD-NP arm | subjects with symptomatic hypotension in association with orthostatic challenge immediately post-infusion (healthy subjects; 25 ng/kg/min): two out of four | symptomatic hypotension during CD-NP dosing (healthy subjects; during dosing): did not induce symptomatic hypotension | maximum tolerated dose (MTD) (healthy subjects; healthy subjects, 10, 17.5 and 25 ng/kg/min tested): 17.5 ng/kg/min | time to steady state of natriuretic peptide (healthy subjects; infusion): 1 to 2 h | half-life (clinical): 15 to 20 min | area under the curve (AUC) vs patient weight ([1]; FIG. 10b): decreases with increasing patient weight | change in SBP ([1]; high dose 36 μg/hr (600 ng/min)): decrease in SBP that could possibly cause hypotension | steady state average (SS Avg) serum concentration vs patient weight ([1]; low (18 μg/hr) and medium (24 μg/hr) doses, FIG. 10a): decreases with increasing patient weight | SBP below 90 mmHg ([2]; 20 ng/kg/min, 8 h infusion, FIG. 4b): one patient had a transient dip in SBP below 90 mmHg | well tolerated dose ([2]; previous studies, co-administered with furosemide to stabilized heart failure patients): up to 20 ng/kg/min
